In brackets after ≈: the same amount, converted by molar mass.
Tests used:
[1] = test system: S. aureus ATCC 43300 (Fluoroquinolone sensitive MRSA); assay: Antibacterial susceptibility (MIC), NCCLS broth microdilution; type: cell-based
Procedure: (§1) Susceptibility of S. aureus strains to the known antibiotics and synthesized compounds was determined by following the guidelines set by NCCLS (M26-A). Compounds were diluted two-fold serially in DMSO and transferred to cation-adjusted Mueller Hinton broth (CAMHB; Becton Dickinson). 50 μL of compounds diluted in CAMHB was mixed with 100 μL of bacteria diluted in CAMHB in 96-well microtiter plates. The final concentration of micro-organisms in the assay was 5×10^5 c.f.u. per mL and the final concentration of DMSO in the assay was 1.25%. Assays were set up in duplicate and incubated at 37° C. for 18 h. The lowest concentration of compound that inhibited visible growth was reported as the minimum inhibitory concentration (MIC).

S. aureus ATCC 13709 [2] = assay: as above; type: cell-based; settings: for Antibacterial activity (in words, summary of Table 1): summary over the strains of Table 1
Procedure: as §1

S. aureus RN4220 = assay: as above; type: cell-based; settings: CAMHB, 37° C., 18 h
Procedure: as §1

[3] = test system: S. aureus BK85 (Fluoroquinolone resistant MRSA); assay: as above; type: cell-based
Procedure: as §1

[4] = test system: S. aureus ATCC 13709 Novobiocin resistant mutant (bone infection); assay: Prophylactic efficacy in rat model of S. aureus bone infection; type: in vivo
Procedure: Specifically, a spontaneous Novobiocin resistant mutant strain of S. aureus ATCC 13709 (a clinical osteomyelitis isolate), was grown overnight at 37° C. in brain heart infusion broth (BHIB). After 16 h of growth, cells were subcultured into fresh BHIB and incubated for 4 to 5 h at 37° C. The cells were washed twice with phosphate-buffered saline (PBS) and resuspended in BHIB supplemented with 10% (vol./vol.) fetal bovine serum at a density of approximately 10^10 colony forming units (CFU)/ml (based upon turbidimetry). The suspension was aliquoted and a portion was used to check the CFU count. The culture was stored frozen (−80° C.) and was used without subculture. For use as an inoculum the culture was thawed, diluted in PBS and kept in an ice bath until it was used.
Animals were infected as described by O'Reilly et al. (Antimicrobial Agents and Chemotherapy (1992), 36(12): 2693-97) to generate the bone infection. Female CD rats (age, 57 to 70 days; n=5/group; Charles River, St-Constant, Canada) were anaesthetized by isofluorane before and during the surgery. Following complete induction of anesthesia, the rat was placed ventral side up and hair was shaved from the surgical site. The skin over the leg was cleaned and disinfected (proviodine-ethanol 70%). A longitudinal incision below the knee joint was made in the sagital plane. The incision was made over the bone below the “knee joint” (tibia head or condyle) but not completely extending to the ankle. A high speed drill fitted with a 2 mm bulb bit was used to drill a hole into the medullar cavity of the tibia. Rats were injected intra-tibially with 0.05 ml 5% sodium morrhuate (sclerosing agent) and then with 0.05 ml of S. aureus suspension (ca. 2×10^7 CFU/rat). The hole was sealed by applying a small amount of dry dental cement which immediately absorbs fluids and adheres to the site. The wound was closed using 3 metal skin clips. Moxifloxacin (as a positive control) was injected once at 10 mg/kg intravenously 1 h postinfection in saline, while the Rifamycin derived prodrugs (prepared in 0.9% saline) were injected at the dose indicated in Table 3 as a single intravenous bolus at different time points prior to the infection.
Infected rats were sacrificed by CO2 asphyxiation 24 h postinfection to monitor the bacterial CFU count. Infected tibiae were removed, dissected free of soft tissue, and weighed. The bones were ground, resuspended in 5 ml 0.9% NaCl, serially diluted and processed for quantitative cultures. For compounds 50, 68 and 81, 1 ml of the 0.9% NaCl solution was added to 50 mg of charcoal before serial dilutions. Treatment efficacy was measured in terms of Log viable bacteria (Log CFU per gram of bone). […] The limit of detection is 2 Log CFU. […] Differences were considered significant when the P value was <0.05 when comparing treated infected animals to the untreated infected ones. The doses used, the amount of time separating the treatment from the time of infection and the treatment outcomes are shown in Table 3.

[5] = test system: E. coli LBB925 (tolC mutant); assay: Antibacterial susceptibility (MIC), NCCLS broth microdilution; type: cell-based; settings: tolC mutant
[6] = Regeneration of drug from bone powder-bound prodrug; type: in vitro ADME; settings: for % Conversion of bone-bound prodrug to parent drug: 24 h incubation, 37° C.; for Impact of the medium on the rate of regeneration of parent drug (in words): serum compared to PBS
Procedure: Amounts of parent drug “regenerated” from the phosphonated prodrug were measured as follows. Washed bone powder-bound prodrugs from the above experiment were resuspended in 400 μL PBS+2% DMSO or in 400 μL 50% (v/v in PBS+2% DMSO) human or rat serum. The suspension was incubated overnight at 37° C., centrifuged at 13,000 rpm for 2 min and the supernatant was recovered. The amount of regenerated parent drug in the supernatant was determined by measurements using the microbiological assay that was previously described for the prodrugs themselves. The amount of prodrug was deduced from standard curves of known amounts of parent drug that were used as reference for each experiment.

S. aureus ATCC 13709 [7] = assay: Antibacterial susceptibility (MIC) in the presence of serum; type: cell-based
Procedure: as §1
Susceptibility testing experiments were also carried out in the presence of serum.
These experiments were carried out similar to the susceptibility testing with the following modifications. 75 μL of compounds diluted in CAMHB was mixed with 75 μL of bacteria diluted in 100% serum from any given source (commercial pooled mouse serum (MS) and human serum (HS), Equitech-Bio Inc.) or diluted in 8% purified human serum albumin (HSA) (Calbiochem). The final concentration of animal serum in the assay was 50% and the final concentration of purified human serum albumin in the assay was 4%; the concentrations of all other components were identical to those described for susceptibility testing.

[8] = test system: S. aureus ATCC 13709 Novobiocin and Rifampicin resistant variant; assay: microbe, parasite or virus in culture; type: cell-based; settings: for Minimum inhibitory concentration, S. aureus ATCC 13709 variant: Novobiocin and Rifampicin resistant variant
Procedure: as §1

Structure (SMILES) | Minimum inhibitory concentration, S. aureus ATCC 43300 [1] [µg/mL] | Minimum inhibitory concentration, S. aureus ATCC 13709 (S. aureus ATCC 13709 [2]) [µg/mL] | Minimum inhibitory concentration, S. aureus RN4220 (S. aureus RN4220) [µg/mL] | Minimum inhibitory concentration, S. aureus BK85 [3] [µg/mL] | Prophylactic effect (in words) ([4]; rat bone infection, doses and times of Table 3, t-test p<0.05) | Measured bacterial titer ([4]; rat tibia 24 h postinfection, single dose 12 mg/kg parent drug equivalent, 1 day prior to infection) | Minimum inhibitory concentration, E. coli LBB925 [5] [µg/mL] | Regeneration of parent drug once bound to bone (in words) [6] | % Conversion of bone-bound prodrug to parent drug ([6]; 50% Rat Serum) [%] | % Conversion of bone-bound prodrug to parent drug ([6]; PBS) | Impact of the medium on the rate of regeneration of parent drug (in words) [6] | Antibacterial activity (in words, summary of Table 1) (S. aureus ATCC 13709 [2]) | Impact of serum on the MICs (in words) (S. aureus ATCC 13709 [7]) | Minimum inhibitory concentration, S. aureus ATCC 13709 + 50% Human Serum (S. aureus ATCC 13709 [7]) [µg/mL] | Minimum inhibitory concentration, S. aureus ATCC 13709 + 50% Mouse Serum (S. aureus ATCC 13709 [7]) [µg/mL] | Activity against the Rifampicin resistant variant of S. aureus ATCC13709 (in words) [8] | Minimum inhibitory concentration, S. aureus ATCC 13709 variant [8] [µg/mL] | Minimum inhibitory concentration, S. aureus ATCC 13709 + 50% Rat Serum (S. aureus ATCC 13709 [7]) [µg/mL]
CO[C@H]1/C=C/O[C@@]2(C)Oc3c(C)c(O)c4c(c3C2=O)C2=NC3(CCN(CC(C)C)CC3)NC2=C(NC(=O)/C(C)=C\C=C\[C@H](C)[C@H](OC(=O)CNC(=O)CC(P(=O)(O)O)P(=O)(O)O)[C@@H](C)[C@@H](O)[C@@H](C)[C@H](OC(C)=O)[C@@H]1C)C4=O [Compound 21, 21-O-(N-(3,3-Bisphosphonopropanoyl)-glycinoyl)-1′,4-didehydro-1-deoxy-1,4-dihydro-5′-(2-methylpropyl)-1-oxorifamycin XIV] | 16 (≈ 14.3 µM) | 16 (≈ 14.3 µM) | 32 (≈ 28.6 µM) | 16 (≈ 14.3 µM) | lacks efficacy | 6.59 ± 0.90 Log CFU/g of bone | >128 | not able to regenerate | 0.02 | <lod | not significantly impacted |  |  |  |  |  |  | 
CCN(CC)CC.CCN(CC)CC.CO[C@H]1/C=C/O[C@@]2(C)Oc3c(C)c(O)c4c(c3C2=O)C2=NC3(CCN(CC(C)C)CC3)NC2=C(NC(=O)/C(C)=C\C=C\[C@H](C)[C@H](OC(=O)CCC(=O)NCCCC(=O)NC(P(=O)(O)O)P(=O)(O)O)[C@@H](C)[C@@H](O)[C@@H](C)[C@H](OC(C)=O)[C@@H]1C)C4=O [Compound 45, 21-O-(3-(3-((bisphosphonomethyl)carbamoyl)propylcarbamoyl)propanoyl)-1′,4-didehydro-1-deoxy-1,4-dihydro-5′-(2-methylpropyl)-1-oxorifamycin XIV] | 64 | 32 | 64 | 64 |  |  | >128 | not able to regenerate | 0.002 | <lod | not significantly impacted | near complete loss of activity | no impact | 64 | 128 | complete lack of activity | >128 | 
CCN(CC)CC.CCN(CC)CC.CO[C@H]1/C=C/O[C@@]2(C)Oc3c(C)c(O)c4c(=O)c(c5oc6cc(N7CCN(CC(C)C)CC7)cc(O)c6nc-5c4c3C2=O)NC(=O)/C(C)=C\C=C\[C@H](C)[C@H](OC(=O)CCC(=O)NCCC(=O)NC(P(=O)(O)O)P(=O)(O)O)[C@@H](C)[C@@H](O)[C@@H](C)[C@H](OC(C)=O)[C@@H]1C [Compound 78, 21-O-(3-(2-((bisphosphonomethyl)carbamoyl)ethylcarbamoyl)propanoyl)-1′,4-Didehydro-1-deoxy-1,4-dihydro-3′-hydroxy-5′-[4-(2-methylpropyl)-1-piperazinyl]-1-oxorifamycin VIII] | 8 | 8 | 16 | 16 |  |  | >128 | not able to regenerate | 0.01 | <lod | significant acceleration | near complete loss of activity |  | >128 | >128 | complete lack of activity | >128 | >128
CO[C@H]1/C=C/O[C@@]2(C)Oc3c(C)c(O)c4c(=O)c(c5oc6cc(N7CCN(CC(C)C)CC7)cc(O)c6nc-5c4c3C2=O)NC(=O)/C(C)=C\C=C\[C@H](C)[C@H](OC(=O)COC(=O)CCC(=O)NC(P(=O)(O)O)P(=O)(O)O)[C@@H](C)[C@@H](O)[C@@H](C)[C@H](OC(C)=O)[C@@H]1C [Compound 84, 21-O-(2-((3-(bisphosphonomethyl)carbamoyl)propanoyloxy)acetyl)-1′,4-Didehydro-1-deoxy-1,4-dihydro-3′-hydroxy-5′-[4-(2-methylpropyl)-1-piperazinyl]-1-oxorifamycin VIII] | 1 (≈ 0.786 µM) | 1 (≈ 0.786 µM) | 1 (≈ 0.786 µM) | 1 (≈ 0.786 µM) |  |  | >128 | not able to regenerate | 0.12 | <lod | significant acceleration |  |  | 16 | 16 | complete lack of activity | >128 | 1

— patent US8404664B2, “Phosphonated Rifamycins and uses thereof for the prevention and treatment of bone and joint infections” (Targanta Therapeutics, Inc., priority 2005, dated 2013)
